According to patent US20110082130A1 (LIGAND PHARMACEUTICALS, INC., priority 2006, published 2011):

These compounds were tested against T1, chimeric human H3 receptor (Homo sapiens, UniProt Q9Y5N1) (assay: Chimeric human H3 receptor GTP binding assay (agonist-stimulated GTP-gamma35S binding, Example 7)). Details: Table I; P2 membranes of Sf9 cells, 1 μM histamine as agonist, Ki from IC50 by Cheng-Prusoff.
T1 construct: made in house; host or cells: Sf9 insect cells (baculovirus); P2 membrane preparation
T1 sequence (Q9Y5N1 with tags, fused parts or gaps): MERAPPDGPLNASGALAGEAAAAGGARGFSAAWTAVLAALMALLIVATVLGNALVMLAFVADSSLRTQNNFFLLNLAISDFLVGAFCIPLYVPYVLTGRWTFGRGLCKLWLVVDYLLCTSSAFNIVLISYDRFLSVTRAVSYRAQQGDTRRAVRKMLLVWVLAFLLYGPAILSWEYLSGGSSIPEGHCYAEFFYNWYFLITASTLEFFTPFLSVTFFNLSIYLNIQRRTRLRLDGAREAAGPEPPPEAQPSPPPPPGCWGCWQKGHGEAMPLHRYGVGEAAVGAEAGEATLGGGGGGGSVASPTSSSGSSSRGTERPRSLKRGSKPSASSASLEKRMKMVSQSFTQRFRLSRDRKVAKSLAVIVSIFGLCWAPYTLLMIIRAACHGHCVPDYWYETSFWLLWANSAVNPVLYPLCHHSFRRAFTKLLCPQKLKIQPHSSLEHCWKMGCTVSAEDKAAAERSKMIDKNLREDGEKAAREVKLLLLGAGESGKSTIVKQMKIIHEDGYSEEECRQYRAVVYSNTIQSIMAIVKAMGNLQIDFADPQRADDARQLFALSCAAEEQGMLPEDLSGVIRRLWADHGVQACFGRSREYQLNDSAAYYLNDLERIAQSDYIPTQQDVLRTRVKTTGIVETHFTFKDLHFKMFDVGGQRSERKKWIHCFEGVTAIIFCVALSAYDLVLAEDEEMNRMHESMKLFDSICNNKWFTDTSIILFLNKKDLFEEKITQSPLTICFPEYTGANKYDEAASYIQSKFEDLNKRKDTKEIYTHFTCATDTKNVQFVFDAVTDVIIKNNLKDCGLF
Type: biochemical
Summary of the method: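 Sf9 membranes co-expressing chimeric human H3 receptor and heterotrimeric G-protein, 35 μg/tube, in pH 7.4 Tris buffer with 10 μM GDP. Test compounds (10^−10–10^−6 M) competed against 1 μM histamine, […] GTP-gamma35S, 60 min at room temperature. Filter-bound radioactivity counted; IC50 converted to Ki by Cheng-Prusoff. Agonism/inverse agonism tested without histamine (EC50).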

Ki, < 1000 nM:
N#Cc1ccc2c(c1)CCN(CC(=O)N1CCN(C3CCC3)CC1)C2 [Compound 69, 2-[2-(4-cyclobutylpiperazin-1-yl)-2-oxoethyl]-1,2,3,4-tetrahydroisoquinoline-6-carbonitrile]
CC(C)N1CCN(C(=O)CN2CCc3ccccc3C2CC2CCCC2)CC1 (centres unmarked) [Compound 54, 1-(cyclopentylmethyl)-2-[2-(4-isopropylpiperazin-1-yl)-2-oxoethyl]-1,2,3,4-tetrahydroisoquinoline]
COc1cc2c(cc1OC)CN(CC(=O)N1CCN(C3CCCC3)CC1)CC2 [Compound 47, 2-[2-(4-cyclopentylpiperazin-1-yl)-2-oxoethyl]-6,7-dimethoxy-1,2,3,4-tetrahydroisoquinoline]
O=C(CN1CCc2cncnc2CC1)N1CCN(C2CCC2)CC1 [Compound 80, 7-[2-(4-cyclobutylpiperazin-1-yl)-2-oxoethyl]-6,7,8,9-tetrahydro-5H-pyrimido[4,5-d]azepine]

Same assay, conditions: Table II "Ki", symbol *; assay of Example 7

Ki, < 1000 nM:
N#CCC1CCN(c2ccc3c(n2)CCN(CC(=O)N2CCN(C4CCC4)CC2)C3)CC1 [Compound 675, (1-{6-[2-(4-cyclobutylpiperazin-1-yl)-2-oxoethyl]-5,6,7,8-tetrahydro-1,6-naphthyridin-2-yl}piperidin-4-yl)acetonitrile]
COc1cc(-c2ccc3c(c2)CCN(CC(=O)N2CCN(C4CCC4)CC2)C3)nc(OC)n1 [Compound 635, 2-[2-(4-cyclobutylpiperazin-1-yl)-2-oxoethyl]-6-(2,6-dimethoxypyrimidin-4-yl)-1,2,3,4-tetrahydroisoquinoline]
CC(C)Oc1cccc(-c2ccc3c(c2)CCN(CC(=O)N2CCN(C4CCC4)CC2)C3)c1 [Compound 513, 2-[2-(4-cyclobutylpiperazin-1-yl)-2-oxoethyl]-6-(3-isopropoxyphenyl)-1,2,3,4-tetrahydroisoquinoline]
O=C(CN1CCc2nc(NC3CCC3)ccc2C1)N1CCN(C2CCC2)CC1 [Compound 654, N-cyclobutyl-6-[2-(4-cyclobutylpiperazin-1-yl)-2-oxoethyl]-5,6,7,8-tetrahydro-1,6-naphthyridin-2-amine]

Same assay, conditions: Table II; "*" = Ki in assay of Example 7 less than 1 micromolar

Ki, < 1000 nM:
O=C(CN1CCc2nc(N3CCCCC3)ncc2C1)N1CCN(C2CCCC2)CC1 [Compound 156, 6-[2-(4-cyclopentylpiperazin-1-yl)-2-oxoethyl]-2-piperidin-1-yl-5,6,7,8-tetrahydropyrido[4,3-d]pyrimidine]
CC(=O)c1ccc2c(c1)CCN(CC(=O)N1CCN(C(C)C)CC1)C2 [Compound 141, 1-{2-[2-(4-isopropylpiperazin-1-yl)-2-oxoethyl]-1,2,3,4-tetrahydroisoquinolin-6-yl}ethanone]
CC(O)c1ccc2c(c1)CCN(CC(=O)N1CCN(C3CCC3)CC1)C2 (centres unmarked) [Compound 219, 1-{2-[2-(4-cyclobutylpiperazin-1-yl)-2-oxoethyl]-1,2,3,4-tetrahydroisoquinolin-6-yl}ethanol]
O=C(CN1CCc2cc(-c3cncs3)ccc2C1)N1CCN(C2CCC2)CC1 [Compound 132, 2-[2-(4-cyclobutylpiperazin-1-yl)-2-oxoethyl]-6-(1,3-thiazol-5-yl)-1,2,3,4-tetrahydroisoquinoline]
O=C(CN1CCc2c(cnn2-c2ccc(Cl)nn2)C1)N1CCN(C2CCC2)CC1 [Compound 214, 1-(6-chloropyridazin-3-yl)-5-[2-(4-cyclobutylpiperazin-1-yl)-2-oxoethyl]-4,5,6,7-tetrahydro-1H-pyrazolo[4,3-c]pyridine]
O=C(CN1CCc2cc(O)ccc2C1)N1CCN(C2CCC2)CC1 [Compound 195, 2-[2-(4-cyclobutylpiperazin-1-yl)-2-oxoethyl]-1,2,3,4-tetrahydroisoquinolin-6-ol]
CC1CCC[C@H]2CN(C(=O)CN3CCc4cc(Br)ccc4C3)CCN12 (stereo in doubt) [Compound 146, 2-[(6-bromo-3,4-dihydroisoquinolin-2(1H)-yl)acetyl]-6-methyloctahydro-2H-pyrido[1,2-a]pyrazine]
O=C(CN1CCc2nc(-c3cccnn3)ccc2C1)N1CCN(C2CCC2)CC1 [Compound 172, 6-[2-(4-cyclobutylpiperazin-1-yl)-2-oxoethyl]-2-pyridazin-3-yl-5,6,7,8-tetrahydro-1,6-naphthyridine]
O=C(CN1CCc2cc(N3CCOC3=O)ccc2C1)N1CCN(C2CCC2)CC1 [Compound 210, 3-{2-[2-(4-cyclobutylpiperazin-1-yl)-2-oxoethyl]-1,2,3,4-tetrahydroisoquinolin-6-yl}-1,3-oxazolidin-2-one]
CC1CN(c2ncc3c(n2)CCN(CC(=O)N2CCN(C4CCC4)CC2)C3)CC(C)O1 (centres unmarked) [Compound 187, 6-[2-(4-cyclobutylpiperazin-1-yl)-2-oxoethyl]-2-(2,6-dimethylmorpholin-4-yl)-5,6,7,8-tetrahydropyrido[4,3-d]pyrimidine]
CC1CCC[C@H]2CN(C(=O)CN3CCc4cc(-n5ccc(C(F)(F)F)n5)ccc4C3)CCN12 (stereo in doubt) [Compound 158, 6-methyl-2-({6-[3-(trifluoromethyl)-1H-pyrazol-1-yl]-3,4-dihydroisoquinolin-2(1H)-yl}acetyl)octahydro-2H-pyrido[1,2-a]pyrazine]
COc1ncc(-n2cc3c(n2)CCN(CC(=O)N2CCN(C4CCC4)CC2)C3)cn1 [Compound 256, 5-[2-(4-cyclobutylpiperazin-1-yl)-2-oxoethyl]-2-(2-methoxypyrimidin-5-yl)-4,5,6,7-tetrahydro-2H-pyrazolo[4,3-c]pyridine]
Cc1ccc(-n2cc3c(n2)CN(CC(=O)N2CCN(C4CCC4)CC2)CC3)nn1 [Compound 264, 6-[2-(4-cyclobutylpiperazin-1-yl)-2-oxoethyl]-2-(6-methylpyridazin-3-yl)-4,5,6,7-tetrahydro-2H-pyrazolo[3,4-c]pyridine]

Same assay, conditions: assay of Example 7; "*" in Ki of Table II

Ki, < 1000 nM:
Cc1cccc(C)c1-c1nc2c(s1)CN(CC(=O)N1CCN(C3CCC3)CC1)CC2 [Compound 363, 5-[2-(4-cyclobutylpiperazin-1-yl)-2-oxoethyl]-2-(2,6-dimethylphenyl)-4,5,6,7-tetrahydro[1,3]thiazolo [5,4-c]pyridine]
Cc1cc(C)c(-c2nc3c(s2)CN(CC(=O)N2CCN(C4CCC4)CC2)CC3)c(C)c1 [Compound 366, 5-[2-(4-cyclobutylpiperazin-1-yl)-2-oxoethyl]-2-mesityl-4,5,6,7-tetrahydro[1,3]thiazolo [5,4-c]pyridine]
O=C(CN1CCc2nc(-c3ccc(F)c(F)c3)sc2C1)N1CCN(C2CCC2)CC1 [Compound 349, 5-[2-(4-cyclobutylpiperazin-1-yl)-2-oxoethyl]-2-(3,4-difluorophenyl)-4,5,6,7-tetrahydro[1,3]thiazolo [5,4-c]pyridine]
O=C(CN1CCc2nc(-c3cccc(F)c3)sc2C1)N1CCN(C2CCC2)CC1 [Compound 298, 5-[2-(4-cyclobutylpiperazin-1-yl)-2-oxoethyl]-2-(3-fluorophenyl)-4,5,6,7-tetrahydro[1,3]thiazolo [5,4-c]pyridine]
CCOc1cccc(-c2nc3c(s2)CN(CC(=O)N2CCN(C4CCC4)CC2)CC3)c1 [Compound 317, 5-[2-(4-cyclobutylpiperazin-1-yl)-2-oxoethyl]-2-(3-ethoxyphenyl)-4,5,6,7-tetrahydro[1,3]thiazolo [5,4-c]pyridine]
